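Cultured in 96-well plates, cells were exposed to test compound for 48 hours across five concentrations. Abbreviation: GI50, concentration required for 50% inhibition of growth. TGI denotes the concentration required for complete inhibition of growth.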
How the values were obtained:
Test in all cases: NCI-60 cell line screen, 48 h
NCI-H23 lung = tested on: NCI-H23 lung
NCI-H460 lung = tested on: NCI-H460 lung
NCI/ADR-RES ovarian = tested on: NCI/ADR-RES ovarian
OVCAR-3 ovarian = tested on: OVCAR-3 ovarian
OVCAR-4 ovarian = tested on: OVCAR-4 ovarian
OVCAR-5 ovarian = tested on: OVCAR-5 ovarian
OVCAR-8 ovarian = tested on: OVCAR-8 ovarian
PC-3 prostate = tested on: PC-3 prostate
RPMI-8226 leukemia = tested on: RPMI-8226 leukemia
RXF 393 renal = tested on: RXF 393 renal
SF-268 CNS = tested on: SF-268 CNS
SF-295 CNS = tested on: SF-295 CNS
SF-539 CNS = tested on: SF-539 CNS
SK-MEL-2 melanoma = tested on: SK-MEL-2 melanoma
SK-MEL-28 melanoma = tested on: SK-MEL-28 melanoma
SK-MEL-5 melanoma = tested on: SK-MEL-5 melanoma
SK-OV-3 ovarian = tested on: SK-OV-3 ovarian
SN12C renal = tested on: SN12C renal
SNB-19 CNS = tested on: SNB-19 CNS
SNB-75 CNS = tested on: SNB-75 CNS
SR leukemia = tested on: SR leukemia
SW-620 colon = tested on: SW-620 colon
T-47D breast = tested on: T-47D breast
TK-10 renal = tested on: TK-10 renal
U251 CNS = tested on: U251 CNS
UACC-257 melanoma = tested on: UACC-257 melanoma
UACC-62 melanoma = tested on: UACC-62 melanoma
UO-31 renal = tested on: UO-31 renal

Compound `CNC1CCc2c(sc(NC(=O)c3ccc(C(C)(C)C)cc3)c2C(N)=O)C1` (stereo unspecified) has a GI50 (NCI-H23 lung) of 1670 nM, a TGI (NCI-H23 lung) of 3620 nM and a GI50 (NCI-H460 lung) of 1630 nM. For the same compound, the TGI (NCI-H460 lung) was 3330 nM, the GI50 (NCI/ADR-RES ovarian) was 2340 nM and the TGI (NCI/ADR-RES ovarian) was 6340 nM. For the same compound, the GI50 (OVCAR-3 ovarian) was 1920 nM, the TGI (OVCAR-3 ovarian) was 3990 nM and the GI50 (OVCAR-4 ovarian) was 2050 nM. It also gave a TGI (OVCAR-4 ovarian) of 5030 nM, a GI50 (OVCAR-5 ovarian) of 2000 nM and a TGI (OVCAR-5 ovarian) of 4390 nM. It also gave a GI50 (OVCAR-8 ovarian) of 2660 nM, a TGI (OVCAR-8 ovarian) of 6930 nM and a GI50 (PC-3 prostate) of 1730 nM. The TGI (PC-3 prostate) was 4020 nM, the GI50 (RPMI-8226 leukemia) was 1950 nM and the TGI (RPMI-8226 leukemia) was 4890 nM. The GI50 (RXF 393 renal) was 1420 nM, the TGI (RXF 393 renal) was 2810 nM and the GI50 (SF-268 CNS) was 2440 nM. The TGI (SF-268 CNS) was 5420 nM, the GI50 (SF-295 CNS) was 1760 nM and the TGI (SF-295 CNS) was 3270 nM. The GI50 (SF-539 CNS) was 1660 nM, the TGI (SF-539 CNS) was 3070 nM and the GI50 (SK-MEL-2 melanoma) was 2000 nM. It also gave a TGI (SK-MEL-2 melanoma) of 4100 nM, a GI50 (SK-MEL-28 melanoma) of 1730 nM and a TGI (SK-MEL-28 melanoma) of 3250 nM. It also gave a GI50 (SK-MEL-5 melanoma) of 1700 nM, a TGI (SK-MEL-5 melanoma) of 3080 nM and a GI50 (SK-OV-3 ovarian) of 2350 nM. It also gave a TGI (SK-OV-3 ovarian) of 6140 nM, a GI50 (SN12C renal) of 2400 nM and a TGI (SN12C renal) of 7340 nM. It also gave a GI50 (SNB-19 CNS) of 1870 nM, a TGI (SNB-19 CNS) of 3640 nM and a GI50 (SNB-75 CNS) of 2020 nM. It also gave a TGI (SNB-75 CNS) of 5660 nM, a GI50 (SR leukemia) of 1290 nM and a TGI (SR leukemia) of 3510 nM. For the same compound, the GI50 (SW-620 colon) was 1910 nM, the TGI (SW-620 colon) was 3660 nM and the GI50 (T-47D breast) was 2060 nM. It also gave a TGI (T-47D breast) of 5590 nM, a GI50 (TK-10 renal) of 2000 nM and a TGI (TK-10 renal) of 3760 nM. The GI50 (U251 CNS) was 1810 nM, the TGI (U251 CNS) was 3790 nM and the GI50 (UACC-257 melanoma) was 1920 nM. The TGI (UACC-257 melanoma) was 4430 nM, the GI50 (UACC-62 melanoma) was 1660 nM and the TGI (UACC-62 melanoma) was 3060 nM. For the same compound, the GI50 (UO-31 renal) was 1510 nM and the TGI (UO-31 renal) was 3460 nM.
